Data reported in patent US10870662B2, “Alpha-amino pateamine A derivatives and methods for treating chronic lymphocytic leukemia” (The Texas A&M University System, priority 2015, dated 2020).
Like-named read-outs stand apart in the source and are kept apart here.

Key:
[1] = tested on: chronic lymphocytic leukemia (CLL) cells; test: CLL cell killing assay (annexin V / propidium iodide flow cytometry, 24 h); format: cell-based, human; conditions: primary CLL cells
Description: Biological Activity of 2-Amino Pateamine Derivatives Peripheral blood from the CLL patients were collected in heparin vacutainer tubes and centrifuged at 1500 rpm for 15 min to separate the plasma. The plasma (upper layer) was removed and saved for cell culture. The lower layer was diluted with phosphate-buffered saline (PBS), and the mononuclear cells were isolated by Ficoll density-gradient centrifugation. The isolated CLL cells were cultured at 1×10^7 cells/mL in RPMI 1640 medium containing 10% of fetal bovine serum, 10% autologous plasma, or 50% autologous plasma. Cell death in CLL lymphocytes was evaluated by flow cytometry analysis using annexin V and propidium iodide (PI) double staining. After incubation with increasing concentrations of PatA analogs for 24 hours, CLL cells (1×10^6 cells) were stained in 100 μL binding buffer with 5 μL annexin-Cy5, and incubated for 15 minutes in dark at room temperature. After staining, 300 μL binding buffer with 5 μL of 50 μg/mL propidium iodide were added to each tube. Samples were analyzed immediately by flow cytometer. Cells stained positive for either annexin V or PI were considered dead cells. The IC50 values of CLL killing were determined by non-linear fitting of the survival curve by the GraphPad Prism software.

[2] = tested on: models of human leukemia and melanoma; conditions: mice; cited from earlier work
[3] = Plasma protein binding (PPB) assay; format: in vitro ADME; conditions: preliminary data
Description: In this example, a representative plasma protein binding (PPB) assay used to provide the plasma protein binding data is described.
The assay includes the following steps.
1. Frozen plasma was thawed and centrifuged at 1120 g for 10 min to remove any particulates. The plasma was decanted, the pH was measured and, if required, was adjusted to pH7.4 with lactic acid.
2. All compounds were prepared at 10 mM concentration in DMSO. The solutions were carefully vortexed to ensure the compounds dissolved. The 10 mM DMSO solutions were diluted to 500 μM MeOH solutions (5+95 μl).
3. In a 2 mL 96-well plate (DWP), 1000 μL of plasma was pipetted into each well in Columns 1-4.
4. 10 μL of the 500 μM compound solution was pipetted to 1000 μL of corresponding plasma. (The final DMSO=0.05%). The solution was capped and carefully vortexed for 5 min.
5. 200 μL of PBS buffer was added to each receiver well of the dialysis plate (buffer was added to the Receiver first).
6. The bottom of dialysis plate was capped and turned over to the orange donor side (top) of dialysis plate.
7. The orange donor side of the dialysis plate was uncapped and 200 μL of the […] drug/plasma samples were transferred from the 2 ml 96-DWP to the corresponding donor wells in the dialysis plate. […]
23. The samples in the Receiver Plate, Donor Plate, and Recovery Plate were analyzed by LC/MS/MS […]

[4] = tested on: P388 murine leukemia cells; conditions: read-out: IC50, cytotoxic activity against P388 murine leukemia cells; cited from earlier work
[5] = RPMI 1640 with 10% autologous (human) plasma, read-out: IC50 CLL Assay, 10% plasma
[6] = RPMI 1640 with 10% fetal bovine serum, read-out: IC50 CLL Assay, 10% FBS
[7] = CLL cell, RPMI 1640 with 10% autologous (human) plasma, read-out: IC50 CLL Assay, 10% plasma
[8] = CLL cell, RPMI 1640 with 50% autologous (human) plasma, read-out: IC50 CLL Assay, 50% plasma
[9] = Homo sapiens, CLL cell, RPMI 1640 with 10% fetal bovine serum, read-out: IC50 CLL Assay, 10% FBS

Molecule | IC50 [1, 7] | IC50 [1, 8] | IC50 [1, 9] | other results
1,1,1-Trichloro-2-methylpropan-2-yl ((1^2Z,3S,6Z,8E,11S,14R)-3-((1E,3E,5E)-7-(dimethylamino)-2,5-dimethylhepta-1,3,5-trien-1-yl)-9,11-dimethyl-5,13-dioxo-4,12-dioxa-1 (2,4)-thiazol acycloheptadecaphane-6,8-dien-14-yl)carbamate [MZ756] | – | – | – | IC50 [1, 5]: 5610 nM; IC50 [1, 6]: 1890 nM
CC(/C=C/C(C)=C/[C@@H]1Cc2nc(cs2)CCCCC(=O)O[C@@H](C)C/C(C)=C/C=C\C(=O)O1)=C\CN(C)C [DMDA Pat A, Des-methyl, des-amino pateamine A, reference compound] | 5370 nM | > 10000 nM | 710 nM | activity in xenograft models [2]: significant tumor reduction; plasma protein binding in human plasma [3]: highly protein bound
C/C(Br)=C\[C@@H]1Cc2nc(cs2)CCC[C@H](NC(=O)OC(C)(C)C)C(=O)O[C@@H](C)C/C(C)=C/C=C\C(=O)O1 [MZ554, tert-Butyl-((1^2Z,3S,6Z,8E,11S,14S)-3-((E)-2-bromoprop-1-en-1-yl)-9,11-dimethyl-5,13-dioxo-4,12-dioxa-1(2,4)-thiazolacycloheptadecaphane-6,8-dien-14-yl)carbamate] | > 10000 nM | – | > 10000 nM | –
CC(Br)=CC1Cc2nc(cs2)CCCC(NC(=O)OC(C)(C)C(Cl)(Cl)Cl)C(=O)OC(C)CC(C)=CC=CC(=O)O1 [MZ569a, 1,1,1-Trichloro-2-methylpropan-2-yl ((1^2Z,3S,6Z,8E,11S,14S)-3-((E)-2-bromoprop-1-en-1-yl)-9,11-dimethyl-5,13-dioxo-4,12-dioxa-1(2,4)-thiazolacycloheptadecaphane-6,8-dien-1^4-yl) carbamate] | – | – | – | IC50 [1, 5]: > 10000 nM; IC50 [1, 6]: > 10000 nM
C/C(Br)=C\[C@@H]1Cc2nc(cs2)CCC[C@H](NC(=O)C(F)(F)F)C(=O)O[C@@H](C)C/C(C)=C/C=C\C(=O)O1 [MZ569b, N-((1^2Z,3S,6Z,8E,11S,14S)-3-((E)-2-Bromoprop-1-en-1-yl)-9,11-dimethyl-5,13-dioxo-4,12-dioxa-1 (2,4)-thiazolacycloheptadecaphane-6,8-dien-1^4-yl)-2,2,2-trifluoroacetamide] | > 10000 nM | – | > 10000 nM | –
CC(C=CC(C)=CC1Cc2nc(cs2)CCCC(NC(=O)OC(C)(C)C(Cl)(Cl)Cl)C(=O)OC(C)CC(C)=CC=CC(=O)O1)=CCN(C)C [MZ576, 1,1,1-Trichloro-2-methylpropan-2-yl((1^2Z,3S,6Z,8E,11 S,14S)-3-((1E,3E,5E)-7-(dimethylamino)-2,5-dimethylhepta-1,3,5-trien-1-yl)-9,11-dimethyl-5,13-dioxo-4,12-dioxa-1 (2,4)-thiazolacycloheptadecaphane-6,8-dien-14-yl)carbamate] | – | – | – | IC50 [1, 5]: 6690 nM; IC50 [1, 6]: 3200 nM
CC(/C=C/C(C)=C/[C@@H]1Cc2nc(cs2)CCC[C@H](N)C(=O)O[C@@H](C)C/C(C)=C/C=C\C(=O)O1)=C\CN(C)C [MZ577, (12Z,3S,6Z,8E,11S,14S)-14-Amino-3-((1E,3E,5E)-7-(dimethylamino)-2,5-dimethylhepta-1,3,5-trien-1-yl)-9,11-dimethyl-4,12-dioxa-1(2,4)-thiazolacycloheptadecaphane-6,8-diene-5,13-dione] | 6360 nM | – | 3010 nM | –
CC(/C=C/C(C)=C/[C@@H]1Cc2nc(cs2)CCC[C@H](NC(=O)OC(C)(C)C)C(=O)O[C@@H](C)C/C(C)=C/C=C\C(=O)O1)=C\CN(C)C [MZ578, tert-Butyl ((1^2Z,3S,6Z,8E,11S,14S)-3-((1E,3E,5E)-7-(dimethylamino)-2,5-dimethylhepta-1,3,5-trien-1-yl)-9,11-dimethyl-5,13-dioxo-4,12-dioxa-1(2,4)-thiazolacycloheptadecaphane-6,8-dien-14-yl) carbamate] | 2010 nM | 8120 nM | 830 nM | –
CC(/C=C/C(C)=C/[C@@H]1Cc2nc(cs2)CCC[C@H](NC(=O)C(F)(F)F)C(=O)O[C@@H](C)C/C(C)=C/C=C\C(=O)O1)=C\CN(C)C [MZ579, N-((1^2Z,3S,6Z,8E,11S,14S)-3-((1E,3E,5E)-7-(dimethylamino)-2,5-dimethylhepta-1,3,5-trien-1-yl)-9,11-dimethyl-5,13-dioxo-4,12-dioxa-1(2,4)-thiazolacycloheptadecaphane-6,8-dien-14-yl)-2,2,2-trifluoroacetamide] | 1790 nM | 7180 nM | 550 nM | –
CC(=O)N[C@H]1CCCc2csc(n2)C[C@@H](/C=C(C)/C=C/C(C)=C/CN(C)C)OC(=O)/C=C\C=C(/C)C[C@H](C)OC1=O [MZ623, N-((1^2Z,3S,6Z,8E,11S,14S)-3-((1E,3E,5E)-7-(dimethylamino)-2,5-dimethylhepta-1,3,5-trien-1-yl)-9,11-dimethyl-5,13-dioxo-4,12-dioxa-1(2,4)-thiazolacycloheptadecaphane-6,8-dien-14-yl) acetamide] | 460 nM | – | 310 nM | –
CC(/C=C/C(C)=C/[C@@H]1Cc2nc(cs2)CCC[C@H](NS(C)(=O)=O)C(=O)O[C@@H](C)C/C(C)=C/C=C\C(=O)O1)=C\CN(C)C [MZ624, N-((1^2Z,3S,6Z,8E,11 S,14S)-3-((1E,3E,5E)-7-(dimethylamino)-2,5-dimethylhepta-1,3,5-trien-1-yl)-9,11-dimethyl-5,13-dioxo-4,12-dioxa-1(2,4)-thiazolacycloheptadecaphane-6,8-dien-14-yl) methanesulfonamide] | 650 nM | – | 370 nM | –
CC(=O)N[C@@H]1CCCc2csc(n2)C[C@@H](/C=C(C)/C=C/C(C)=C/CN(C)C)OC(=O)/C=C\C=C(/C)C[C@H](C)OC1=O [MZ757, N-((1^2Z,3S,6Z,8E,11S,14R)-3-((1E,3E,5E)-7-(dimethylamino)-2,5-dimethylhepta-1,3,5-trien-1-yl)-9,11-dimethyl-5,13-dioxo-4,12-dioxa-1(2,4)-thiazolacycloheptadecaphane-6,8-dien-14-yl) acetamide] | 450 nM | – | < 50 nM | –
CC(/C=C/C(C)=C/[C@@H]1Cc2nc(cs2)[C@@H](C)C[C@@H](N)CC(=O)O[C@@H](C)C/C(C)=C/C=C\C(=O)O1)=C\CN(C)C [PatA, Pateamine A] | 160 nM | 470 nM | 150 nM | IC50 [4]: 0.27 nM
